Results on one substance are retold here after paper PMC12781162, “Human Protein Z as the Second Known Heme‐Binding Protein from the Endogenous Blood Coagulation Inhibitor System” (Chembiochem, 2025).

Like-named read-outs stand apart in the source and are kept apart here.

Test [1] can be described thus: Substrate control of the chromogenic assay without thrombin. In kind it is biochemical. The settings on record: no thrombin; heme 1 – 1000 nM, PZ 10 nM; thrombin = 100 %. On the procedure:
Herein, an earlier established chromogenic thrombin amidolytic activity assay system was thus used, inspired by Hogg and Stenflo.^[ [19] ^, [28] ^] PZ (final concentration: 10 nM) was first incubated for 30 min with different heme concentrations (final concentrations: 1–1000 nM). Afterward, the heme–PZ mixture was incubated with thrombin for 10 min and the PZ–thrombin mixture (50 µL; final thrombin concentration: 15 nM) was transferred onto a 96‐well plate (Greiner Bio‐One GmbH). Finally, 5 µL of the substrate solution (H‐D‐Phe‐Pip‐Arg‐pNA x 2 HCl (S‐2238); final concentration: 273 µM) was added. Immediately, kinetic measurements at 405 nm were started, using an Infinite 200 Pro spectrophotometer. Heme only, thrombin only, and PZ‐heme only served as controls. For evaluation, the thrombin activity was determined as the change of absorbance per second and always normalized against the basal thrombin activity without PZ. Data were analyzed as the mean of triplicate and the IC50 was calculated by nonlinear regression (GraphPad Prism, version 10.5.0). […]
thrombinheme (0 nM)heme (1 nM) thrombin heme (3.16 nM)heme (10 nM)heme (31.6 nM)heme (100 nM)heme (316 nM)heme (1000 nM)PZ+heme (0 nM)PZ+heme (1 nM) PZ+heme (3.16 nM)PZ+heme (10 nM)PZ+heme (31.6 nM)PZ+heme (100 nM)PZ+heme (316 nM)PZ+heme (1000 nM)
Figure S5. […]

Another test concerns the target T1, PZ (Homo sapiens, UniProt P22891).
T1 construct: purchased CellSystems GmbH HCPZ-0220 (PZ); HCXA-0060 (FXa)
The experiment in a line: aPTT-based one-stage clotting assay: anticoagulant function of PZ against FXa in the presence of heme. In kind it is biochemical. The settings on record: PZ 32 nM, FXa 0.1 nM; for impact alone on the procoagulant function of FXa or on clotting of pure plasma (aPTT): controls, heme 0.06 – 20 µM. On the procedure: To estimate an effect on molecular level, the structure of the PZ–ZPI complex (PDB: 3H5C^[ [42] ^]) was first inspected with heme attached to PZ. The anticoagulant function of PZ was then analyzed in the presence of heme by a one‐stage clotting assay, which was inspired by previous work from us and others.^[ [19] ^, [27] ^] The aPTT‐based assay was performed with the ball coagulometer KC 4 A (Amelung, Lemgo, Germany). PZ (320 nM) was preincubated with different concentrations of heme (0–100 µM) for 30 min in 1x PBS, pH 7.4. Afterward, 50 µL of the PZ–heme mixture was incubated with 50 µL of Actin FSL, 50 µl CaCl2 (30 mM), and 50 µL FXa (0.5 nM) at 37 °C for 3 min. Finally, 50 µL citrated pooled plasma was added and the clotting time was automatically recorded. The following mixtures served as controls: 1) 50 µL PBS‐heme + 50 µL Actin FSL + 50 µL CaCl2 + 50 µL FXa + 50 µL citrated plasma, 2) 50 µL PBS‐heme + 50 µL Actin FSL + 50 µL CaCl2 + 50 µL PBS + 50 µL citrated plasma, 3) 50 µL PZ–heme + 50 µL Actin FSL + 50 µL CaCl2 + 50 µL PBS + 50 µL citrated plasma, 4) 50 µL PZ‐PBS + 50 µL Actin FSL + 50 µL CaCl2 + 50 µL FXa + 50 µL citrated plasma, 5) 50 µL PZ‐PBS + 50 µL Actin FSL + 50 µL CaCl2 + 50 µL PBS + 50 µL citrated plasma, 6) 50 µL PBS + 50 µL Actin FSL + 50 µL CaCl2 + 50 µL FXa + 50 µL citrated plasma, and 7) 50 µL PBS + 50 µL Actin FSL + 50 µL CaCl2 + 50 µL PBS + 50 µL citrated plasma. Final concentrations in the approach were 6 mM CaCl2, 0–20 µM heme, 32 nM and PZ, 0.1 nM FXa. Data were normalized against the clotting time of citrated plasma only (control (7)) and evaluated as the mean of triplicates. The IC50 was determined by fitting the curves with nonlinear regression (GraphPad Prism, version 10.5.0).

The next test has as its target thrombin (Homo sapiens, UniProt P00734). As to the kind of experiment: SPR binding of porphyrins to immobilized thrombin. More on the design: human α‐thrombin (HCT‐0020); purchased CellSystems GmbH HCT-0020. To be noted: heterogeneous ligand model. On the procedure:
(§1) SPR experiments were conducted on a Biacore 8K instrument (Cytiva) to investigate the interaction of PZ with heme, as established before.^[ [19] ^, [35] ^, [37] ^, [43] ^] In brief, PZ (10 µg mL^−1) was dissolved in 10 mM sodium acetate buffer (pH 3.5) and immobilized onto a CM5 sensor chip via standard amine coupling, resulting in a final immobilization level of 767 RU. Heme (stock solution in 30 mM NaOH) was further diluted in running buffer (10 mM HEPES, 150 mM NaCl, and 0.05% Tween 20, pH 7.4). The same was performed with zinc (II) protoporphyrin IX and protoporphyrin IX (Frontier Scientific). Binding kinetics were assessed by injecting seven increasing concentrations of heme (187.5–12,000 nM) in a single‐cycle kinetics format at 25 °C and a flow rate of 30 µL min^−1. Data analysis was performed by global fitting using Biacore Insight Evaluation Software, version 3.0.12.15655 (Cytiva).
Figure S7. Heme binds to thrombin. For SPR analysis, thrombin (10 µg/ml) was dissolved in 10 mM sodium acetate buffer (pH 6.0) and immobilized onto a CM5 sensor chip via standard amine coupling, resulting in a final immobilization level of 1826.1 RU. Binding kinetics were assessed by injecting six increasing concentrations of heme (187.5 – 6,000 nM) in a single-cycle kinetics format at 25°C and a flow rate of […]
transient nature of heme binding to thrombin. […]

For test [2], the target named is coagulation factor VIII (FVIII). Also noted: method as in PMID 3105105, PMID 22471307, PMID 38631156. The settings on record: read-out: K D (heme binding to FVIII); cited from earlier work.
For the next test, the target named is T2, Human protein Z (PZ) (Homo sapiens, UniProt P22891).
T2 construct: purchased CellSystems GmbH HCPZ-0220
As to the kind of experiment: SPR binding of porphyrins to immobilized PZ (single-cycle kinetics). To be noted: for Kd: heterogenous ligand model. On the procedure:
as §1

T1 sequence (P22891 41-400): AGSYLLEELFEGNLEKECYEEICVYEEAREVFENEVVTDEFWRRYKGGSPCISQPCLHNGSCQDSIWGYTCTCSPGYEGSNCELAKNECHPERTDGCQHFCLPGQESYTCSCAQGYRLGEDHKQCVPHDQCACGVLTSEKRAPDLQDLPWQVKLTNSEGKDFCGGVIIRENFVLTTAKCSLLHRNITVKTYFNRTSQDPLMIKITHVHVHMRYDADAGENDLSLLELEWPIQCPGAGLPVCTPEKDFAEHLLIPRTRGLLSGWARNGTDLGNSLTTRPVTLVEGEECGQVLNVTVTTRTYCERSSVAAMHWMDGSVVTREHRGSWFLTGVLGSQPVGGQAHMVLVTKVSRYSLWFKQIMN
T2 sequence (P22891 41-400): as above

For Hemin [heme], the “relative amidolytic activity toward substrate S-2238” value in test [1] is ~ 0%. Besides, the “heme level at which the procoagulant function of FXa was restored” value on PZ was at least 2 µM. Also, the IC50 on PZ (heme 0.06–20 µM, citrated pooled plasma, read-out: IC50 (inhibition of the anticoagulant function of PZ against FXa)) stood at 830 ± 210 nM. In addition, the entries for the “impact alone on the procoagulant function of FXa or on clotting of pure plasma (aPTT)” value at PZ and at PZ (listed as Heme) were “did not exert any significant impact” and “did neither affect”, respectively. The Kd at thrombin (read-out: KD1 (porphyrin binding to thrombin)) is 92.9 nM; on thrombin (read-out: KD2 (porphyrin binding to thrombin)), 709 nM; in test [2], 2 to 13 nM; at Human protein Z (PZ) (heme 187.5 nM–12 µM, 25 °C, read-out: K D1 (heme-binding affinity for PZ)), 123 nM; on Human protein Z (PZ) (read-out: K D2 (second binding event, likely unspecific)), 8570 nM. For the same substance, on Human protein Z (PZ) (first binding event), the “k a1 (association rate)” value is 47300 M⁻¹ s⁻¹. Besides, the “k d1 (dissociation rate)” value on Human protein Z (PZ) (first binding event) was 0.00583 s⁻¹. In addition, at Human protein Z (PZ) (second binding event), the “k a2 (association rate)” value worked out at 845 M⁻¹ s⁻¹. Further, on Human protein Z (PZ) (second binding event), the “k d2 (dissociation rate)” value came to 0.00724 s⁻¹.
